Measured values reported in patent publication US11466044B2 (WAYNE STATE UNIVERSITY, priority 2017, dated 2022).
≈ marks a conversion by molar mass, not a printed value.

Tests used:
[1] = system: MRSA; assay: MIC by broth microdilution, MRSA isolates; assay type: cell-based; conditions: for MIC AG038 MRSA: clinical isolate AG038; for MIC AG039 MRSA AAC(6′)-I ANT(4′)-I: clinical isolate AG039, AAC(6′)-I ANT(4′)-I; for MIC AG042 MRSA AAC(6′)-I ANT(4′)-I APH(2′): clinical isolate AG042, AAC(6′)-I ANT(4′)-I APH(2′); for MIC AG044 MRSA: clinical isolate AG044
[2] = system: E coli wild type; assay: MIC by broth microdilution, wild type E coli; assay type: cell-based; conditions: for MIC pH430 WT: E. coli strain pH430, WT; for MIC AG001 E. coli WT: clinical isolate AG001, WT; for MIC AG055 E. coli WT: clinical isolate AG055, WT
[3] = system: P aeruginosa; assay: MIC by broth microdilution, P aeruginosa isolates; assay type: cell-based, Pseudomonas aeruginosa; conditions: for MIC AG031 P. aer. APH(3′)-II: clinical isolate AG031, APH(3′)-II; for MIC AG032 P. aer. APH(3′)-II: clinical isolate AG032, APH(3′)-II
[4] = system: E coli carrying specific resistance determinants; assay: MIC by broth microdilution, E coli carrying specific resistance determinants; assay type: cell-based; conditions: for MIC AG036 ANT(4′,4′′): E. coli strain AG036, ANT(4′,4′′); for MIC AG037 APH(3′)-III: E. coli strain AG037, APH(3′)-III; for MIC pH421 APH(3)-I: E. coli strain pH421, APH(3)-I; for MIC pH422 APH(3′)-II: E. coli strain pH422, APH(3′)-II; for MIC pH423 APH(3′)-VI: E. coli strain pH423, APH(3′)-VI; for MIC AG003 E. coli AAC(3)-II: clinical isolate AG003, AAC(3)-II
[5] = system: wild type bacterial ribosomes; assay: in-vitro translation assay, bacterial ribosomes; assay type: biochemical; conditions: Mycobacterium smegmatis ribosomes; read-out: IC50 Bacterial
From the text: (§1) The antiribosomal activity of these compounds was investigated with cell-free translation assays using both wild type bacterial ribosomes and hybrid ribosomes carrying eukaryotic decoding A sites enabling the prediction of selectivity.

[6] = system: A1555G mutant mitochondrial ribosome (human chimeric); assay: in-vitro translation assay, human chimeric ribosomes, A1555G mutant mitochondrial decoding site; assay type: biochemical; conditions: human mitochondrial decoding site with A1555G point mutation; read-out: IC50 Mitoch. A1555G
From the text: as §1

[7] = system: cytosolic ribosome (human chimeric); assay type: biochemical; conditions: for IC50: ribosomes with a human cytosolic decoding site, read-out: IC50 Cytosolic
From the text: as §1

[8] = system: mitochondrial ribosome (human chimeric); assay type: biochemical; conditions: for IC50: ribosomes with a human mitochondrial decoding site, read-out: IC50 Mitoch.
From the text: as §1

[9] = system: rabbit reticulocyte ribosomes; assay: in-vitro translation assay, rabbit reticulocyte ribosomes; assay type: biochemical; conditions: mammalian cytosolic ribosomes (rabbit)

Structure (SMILES)	MIC AG038 MRSA [1]	MIC pH430 WT [2]	MIC AG001 E. coli WT [2]	MIC AG031 P. aer. APH(3′)-II [3]	MIC AG036 ANT(4′,4′′) [4]	MIC AG037 APH(3′)-III [4]	MIC pH421 APH(3)-I [4]	MIC pH422 APH(3′)-II [4]	MIC pH423 APH(3′)-VI [4]	IC50 [5]	IC50 [6]	IC50 [7]	IC50 [8]	IC50 [9]	MIC AG039 MRSA AAC(6′)-I ANT(4′)-I [1]	MIC AG042 MRSA AAC(6′)-I ANT(4′)-I APH(2′) [1]	MIC AG044 MRSA [1]	MIC AG055 E. coli WT [2]	MIC AG032 P. aer. APH(3′)-II [3]	MIC AG003 E. coli AAC(3)-II [4]	further results
NCC1OC(OC2C(CO)OC(OC3C(O)C(N)CC(N)C3OC3OC4C(O)CCCOC4C(O)C3N)C2O)C(N)C(O)C1O (stereo not shown) [DC196]	2 µg/mL (≈ 3.05 µM)	4 μg/ml	4 µg/mL (≈ 6.1 µM)	>32 µg/mL	2 µg/mL (≈ 3.05 µM)	>128 µg/mL	>128 μg/ml	64 μg/ml	16 μg/ml	0.14 µM	96 µM	88 µM	200 µM	43 µM	–	–	–	–	–	–	–
CCCC(O)C1OC(OC2C(N)CC(N)C(O)C2OC2OC(CO)C(OC3OC(CN)C(O)C(O)C3N)C2O)C(N)C(O)C1O (stereo not shown) [DC143]	32 to 64 µg/mL	4 μg/ml	32 µg/mL (≈ 48.7 µM)	>64 µg/mL	64 µg/mL (≈ 97.3 µM)	>128 µg/mL	>128 μg/ml	>128 μg/ml	32-64 μg/ml	0.16 µM	93 µM	259 µM	328 µM	66 µM	>64 µg/mL	>64 µg/mL	16 µg/mL (≈ 24.3 µM)	32 µg/mL (≈ 48.7 µM)	>64 µg/mL	32 µg/mL (≈ 48.7 µM)	MIC AG103 armA ([4]; E. coli strain AG103, armA): 16 to 32 µg/mL; MIC pH432 ANT(4′) ([4]; E. coli strain pH432, ANT(4′)): 4 μg/ml
CC(=O)N[C@H]1[C@@H](O[C@H]2[C@H](O[C@@H]3O[C@H](CO)[C@@H](O[C@H]4O[C@@H](CN)[C@@H](O)[C@H](O)[C@H]4N)[C@H]3O)[C@@H](O)[C@H](N)C[C@@H]2N)O[C@H](CN)[C@@H](O)[C@@H]1O [DC-183]	>32 µg/mL	–	>32 µg/mL	>32 µg/mL	–	–	–	–	–	5.3 µM	28 µM	147 µM	93 µM	103 µM	>32 µg/mL	>32 µg/mL	–	>32 µg/mL	>32 µg/mL	>32 µg/mL	Target specificity bacterial vs. Cytosolic ([7]; relative target specificity, bacterial vs. human cytosolic): low; Target specificity bacterial vs. Mitochondrial ([8]; relative target specificity, bacterial vs. human mitochondrial): low
NC[C@@H]1O[C@H](O[C@H]2[C@@H](O)[C@H](O[C@@H]3[C@@H](O)[C@H](N)C[C@H](N)[C@H]3O[C@H]3O[C@H](CN)[C@@H](O)[C@H](O)[C@H]3O)O[C@@H]2CO)[C@H](N)[C@@H](O)[C@@H]1O [DC-119]	2 µg/mL (≈ 3.25 µM)	–	2 to 4 µg/mL	128 µg/mL (≈ 208 µM)	–	–	–	–	–	0.03 µM	2.7 µM	108 µM	36 µM	88 µM	>128 µg/mL	>128 µg/mL	2 µg/mL (≈ 3.25 µM)	2 to 4 µg/mL	128 µg/mL (≈ 208 µM)	2 to 4 µg/mL	–
NCC1OC(OC2C(CNC=O)OC(OC3C(O)C(N)CC(N)C3OC3OC(CO)C(O)CC3N)C2O)C(N)C(O)C1O (stereo not shown) [DC153]	4 µg/mL (≈ 6.38 µM)	–	4 µg/mL (≈ 6.38 µM)	32 to 64 µg/mL	–	–	–	–	–	0.12 µM	39 µM	132 µM	144 µM	57 µM	>128 µg/mL	>128 µg/mL	4 µg/mL (≈ 6.38 µM)	2 to 4 µg/mL	32 µg/mL (≈ 51.1 µM)	4 µg/mL (≈ 6.38 µM)	–
